Counter-ions that a name gives are not always drawn.
Each compound was assayed on Jurkat HIV-luciferase clones (assay: Jurkat latency reversal assay). Conditions: Homo sapiens, Jurkat, 48 h.
Assay type: cell-based
Outline: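 Three pooled Jurkat HIV-luciferase clones (C16, I15, N6; 5,000 cells/well, maintained with 500 nM EFV) exposed to 3-fold, 14-point titrations (10 μM to 2.1 pM, 0.5% DMSO) in duplicate for 48 h at 37 °C. Luciferase luminescence read; EC50 and maximal % activation versus vehicle from four-parameter logistic fit.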

Row | SMILES | EC50 [nM]
1 | CN[C@@H](C)C(=S)N[C@H]1CCS[C@H]2CC(C)(C)[C@@H](C(=O)N[C@H]3c4ccccc4C[C@H]3OCCOCCO[C@@H]3Cc4ccccc4[C@@H]3NC(=O)[C@H]3N4C(=O)[C@@H](NC(=S)[C@H](C)NC)CCS[C@H]4CC3(C)C)N2C1=O [compound 19, (4S,4′S,7S,7′S,9aS,9a′S)-N,N′-((1S,1′S,2R,2′R)-((oxybis(ethane-2,1-diyl))bis(oxy))bis(2,3-dihydro-1H-indene-2,1-diyl))bis(8,8-dimethyl-4-((S)-2-(methylamino)propanethioamido)-5-oxooctahydropyrrolo[2,1-b][1,3]thiazepine-7-carboxamide) dihydrochloride] | 9.4
2 | CN[C@@H](C)C(=O)N[C@H]1CCS[C@H]2CC(C)(C)[C@@H](C(=O)N[C@H](COCC#CC#CCOC[C@@H](NC(=O)[C@H]3N4C(=O)[C@@H](NC(=S)[C@H](C)NC)CCS[C@H]4CC3(C)C)c3ccccc3)c3ccccc3)N2C1=O [compound 34, (4S,7S,9aS)-N-((S)-2-((6-((S)-2-((4S,7S,9aS)-8,8-dimethyl-4-((S)-2-(methylamino)propanamido)-5-oxooctahydropyrrolo[2,1-b][1,3]thiazepine-7-carboxamido)-2-phenylethoxy)hexa-2,4-diyn-1-yl)oxy)-1-phenylethyl)-8,8-dimethyl-4-((S)-2-(methylamino)propanethioamido)-5-oxooctahydropyrrolo[2,1-b][1,3]thiazepine-7-carboxamide] | 36.3
3 | CN[C@@H](C)C(=O)N[C@H]1CCS[C@H]2CC(C)(C)[C@@H](C(=O)N[C@H]3c4ccccc4C[C@H]3OCc3ccc(CO[C@@H]4Cc5ccccc5[C@@H]4NC(=O)[C@H]4N5C(=O)[C@@H](NC(=O)[C@H](C)NC)CCS[C@H]5CC4(C)C)cc3)N2C1=O [compound 22, (4S,4′S,7S,7′S,9aS,9a′S)-N,N′-((1S,1′S,2R,2′R)-((1,4-phenylenebis(methylene))bis(oxy))bis(2,3-dihydro-1H-indene-2,1-diyl))bis(8,8-dimethyl-4-((S)-2-(methylamino)propanamido)-5-oxooctahydropyrrolo[2,1-b][1,3]thiazepine-7-carboxamide)] | 8.8
4 | CN[C@@H](C)C(=S)N[C@H]1CCS[C@H]2CC(C)(C)[C@@H](C(=O)N[C@H]3c4ccccc4C[C@H]3OCCCCCCO[C@@H]3Cc4ccccc4[C@@H]3NC(=O)[C@H]3N4C(=O)[C@@H](NC(=S)[C@H](C)NC)CCS[C@H]4CC3(C)C)N2C1=O [compound 21, (4S,4′S,7S,7′S,9aS,9a′S)-N,N′-((1S,1′S,2R,2′R)-(hexane-1,6-diylbis(oxy))bis(2,3-dihydro-1H-indene-2,1-diyl))bis(8,8-dimethyl-4-((S)-2-(methylamino)propanethioamido)-5-oxooctahydropyrrolo[2,1-b][1,3]thiazepine-7-carboxamide)] | 13
5 | CN[C@@H](C)C(=O)N[C@H]1CCS[C@H]2CC(C)(C)[C@@H](C(=O)Nc3ccccc3CCc3ccccc3NC(=O)[C@H]3N4C(=O)[C@@H](NC(=O)[C@H](C)NC)CCS[C@H]4CC3(C)C)N2C1=O [compound 3, (4S,4′S,7S,7′S,9aS,9a′S)-N,N′-(ethane-1,2-diylbis(2,1-phenylene))bis(8,8-dimethyl-4-((S)-2-(methylamino)propanamido)-5-oxooctahydropyrrolo[2,1-b][1,3]thiazepine-7-carboxamide) dihydrochloride] | 80.5
6 | CN[C@@H](C)C(=S)N[C@H]1CCS[C@H]2CC(C)(C)[C@@H](C(=O)N[C@H](COCC#CC#CCOC[C@@H](NC(=O)[C@H]3N4C(=O)[C@@H](NC(=S)[C@H](C)NC)CCS[C@H]4CC3(C)C)c3ccccc3)c3ccccc3)N2C1=O [compound 35, (4S,4′S,7S,7′S,9aS,9a′S)-N,N′-((1S,1′S)-(hexa-2,4-diyne-1,6-diylbis(oxy))bis(1-phenylethane-2,1-diyl))bis(8,8-dimethyl-4-((S)-2-(methylamino)propanethioamido)-5-oxooctahydropyrrolo[2,1-b][1,3]thiazepine-7-carboxamide)] | 9
7 | CN[C@@H](C)C(=O)N[C@H]1CCS[C@H]2CC(C)(C)[C@@H](C(=O)N[C@H](COCc3ccc4cc(COC[C@@H](NC(=O)[C@H]5N6C(=O)[C@@H](NC(=O)[C@H](C)NC)CCS[C@H]6CC5(C)C)c5ccccc5)ccc4c3)c3ccccc3)N2C1=O [compound 62, (4S,4′S,7S,7′S,9aS,9a′S)-N,N′-((1S,1′S)-((naphthalene-2,6-diylbis(methylene))bis(oxy))bis(1-phenylethane-2,1-diyl))bis(8,8-dimethyl-4-((S)-2-(methylamino)propanamido)-5-oxooctahydropyrrolo[2,1-b][1,3]thiazepine-7-carboxamide)] | 4.2
8 | CN[C@@H](C)C(=S)N[C@H]1CCS[C@H]2CC(C)(C)[C@@H](C(=O)NC3c4ccccc4CC[C@H]3C(=O)N3CCN(C(=O)[C@@H]4CCc5ccccc5C4NC(=O)[C@H]4N5C(=O)[C@@H](NC(=S)[C@H](C)NC)CCS[C@H]5CC4(C)C)CC3)N2C1=O (stereo in doubt) [compound 8, (4S,4′S,7S,7′S,9aS,9a′S)-N,N′-((1R,1′R,2R,2′R)-(piperazine-1,4-dicarbonyl)bis(1,2,3,4-tetrahydronaphthalene-2,1-diyl))bis(8,8-dimethyl-4-((S)-2-(methylamino)propanethioamido)-5-oxooctahydropyrrolo[2,1-b][1,3]thiazepine-7-carboxamide) dihydrochloride] | 2.4
9 | CN[C@@H](C)C(=O)N[C@H]1CCS[C@H]2CC(C)(C)[C@@H](C(=O)N[C@H](COCCCCCCCCCCOC[C@@H](NC(=O)[C@H]3N4C(=O)[C@@H](NC(=O)[C@H](C)NC)CCS[C@H]4CC3(C)C)c3ccccc3)c3ccccc3)N2C1=O [compound 60, (4S,4′S,7S,7′S,9aS,9a′S)-N,N′-((1S,1′S)-(decane-1,10-diylbis(oxy))bis(1-phenylethane-2,1-diyl))bis(8,8-dimethyl-4-((S)-2-(methylamino)propanamido)-5-oxooctahydropyrrolo[2,1-b][1,3]thiazepine-7-carboxamide) dihydrochloride] | 3.5
10 | CN[C@@H](C)C(=S)N[C@H]1CCS[C@H]2CC(C)(C)[C@@H](C(=O)N[C@H](COCCOCCOC[C@@H](NC(=O)[C@H]3N4C(=O)[C@@H](NC(=S)[C@H](C)NC)CCS[C@H]4CC3(C)C)c3ccccc3)c3ccccc3)N2C1=O [compound 39, (4S,4′S,7S,7′S,9aS,9a′S)-N,N′-((1S,1′S)-((oxybis(ethane-2,1-diyl))bis(oxy))bis(1-phenylethane-2,1-diyl))bis(8,8-dimethyl-4-((S)-2-(methylamino)propanethioamido)-5-oxooctahydropyrrolo[2,1-b][1,3]thiazepine-7-carboxamide) dihydrochloride] | 51.8
11 | CN[C@@H](C)C(=O)N[C@H]1CCS[C@H]2CC(C)(C)[C@@H](C(=O)N[C@H](COCCCCCCCCOC[C@@H](NC(=O)[C@H]3N4C(=O)[C@@H](NC(=O)[C@H](C)NC)CCS[C@H]4CC3(C)C)c3ccccc3)c3ccccc3)N2C1=O [compound 58, (4S,4′S,7S,7′S,9aS,9a′S)-N,N′-((1S,1′S)-(octane-1,8-diylbis(oxy))bis(1-phenylethane-2,1-diyl))bis(8,8-dimethyl-4-((S)-2-(methylamino)propanamido)-5-oxooctahydropyrrolo[2,1-b][1,3]thiazepine-7-carboxamide) dihydrochloride] | 4.5
